From patent US20160130278A1 (TAISHO PHARMACEUTICAL CO., LTD, priority 2013, published 2016)

Target: T1, human type 1 glycine transporter (GlyT1) (Homo sapiens, UniProt P48067)
T1 construct: T98G cells (glioma cells) expressing human type 1 glycine transporter (GlyT1) were used
T1 sequence (P48067 1-706): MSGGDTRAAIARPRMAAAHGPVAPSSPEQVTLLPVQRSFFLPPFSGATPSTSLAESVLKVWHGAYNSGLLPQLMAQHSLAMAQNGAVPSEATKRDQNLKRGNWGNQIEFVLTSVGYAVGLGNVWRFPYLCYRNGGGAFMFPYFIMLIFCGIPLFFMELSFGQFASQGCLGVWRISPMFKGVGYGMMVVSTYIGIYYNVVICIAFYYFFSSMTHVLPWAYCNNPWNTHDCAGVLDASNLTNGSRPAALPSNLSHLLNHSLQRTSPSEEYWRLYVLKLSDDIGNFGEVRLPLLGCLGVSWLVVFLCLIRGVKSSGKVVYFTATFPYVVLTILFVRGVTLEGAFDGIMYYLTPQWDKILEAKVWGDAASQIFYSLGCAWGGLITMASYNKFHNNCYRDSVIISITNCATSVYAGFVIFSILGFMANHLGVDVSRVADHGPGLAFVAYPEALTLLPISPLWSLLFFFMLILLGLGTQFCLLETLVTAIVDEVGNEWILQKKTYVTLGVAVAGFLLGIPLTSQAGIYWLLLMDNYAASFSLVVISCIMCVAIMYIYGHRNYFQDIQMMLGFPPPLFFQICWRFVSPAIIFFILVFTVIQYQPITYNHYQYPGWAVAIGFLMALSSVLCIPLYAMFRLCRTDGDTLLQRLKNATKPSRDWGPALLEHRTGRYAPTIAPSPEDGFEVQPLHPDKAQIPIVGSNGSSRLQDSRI
Test: Glycine uptake inhibition experiment ([3H]glycine uptake)
Type: cell-based
Settings: GlyT1
How it was run: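 T98G glioma cells expressing human GlyT1 were pretreated 10 min with compound in HEPES buffer pH 7.4 (0.2% BSA), then incubated with compound plus 250 nM final [3H]glycine for 15 min at room temperature. Intracellular radioactivity was counted after NaOH lysis; 10 μM ALX5407 defined non-specific uptake. IC50 came from 10^−9–10^−5 M curves.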

`CN(C)Cc1cccc(C(NC(=O)c2nccc(C(F)(F)F)c2Cl)C2(O)CCCC2)c1` (stereo not shown) [Compound 112, 3-chloro-N-[{3-[(dimethylamino)methyl]phenyl}(1-hydroxycyclopentyl)methyl]-4-(trifluoromethyl)pyridine-2-carboxamide] gave an IC50 of 1800 nM.
